# Experimental data reported in US20100278875A1, “PROSTAGLANDIN E2 (PGE2) AS AN ADJUVANT IN MONOCLONAL ANTIBODY GENERATION” (priority 2006, published 2010).
# Assays:
# nominal immunogen (AgX) = assay: Antibody titers in Balb/c mice against a nominal immunogen (AgX) in the presence or absence of PGE2; format: in vivo; details: following 2 injections, versus PBS
# Method: (§1) To generate antibody against ovalbumin (OVA), Balb/c mice were immunized with 25 ug of OVA emulsified in adjuvant. To test the effect of PGE2, the mice were injected with 1 nmol PGE2 intraperitoneally (i.p.) 3 hours prior to immunization, and again at 24 and 48 hours post immunization. For the control group, the mice were injected (i.p.) with an equal volume of PBS 3 hours prior to immunization. The mice were boosted with 25 ug OVA on Day 14 (i.p.) and Day 28 (subcutaneously). Anti-OVA titers were determined on Day 27 and Day 35.
# (§2) To assess the effect of PGE2 on generating antibodies against difficult targets, a nominal immunogen (AgX) known to be difficult to raise an antibody response was used. Briefly, Balb/c mice were immunized following the same schedule outlined above with either 25 ug of OVA or AgX and titered on Day 27 following 2 i.p. injections. […] Therefore, PGE2 enhances immune responses in Balb/c mice and may be used to shorten immunization time lines.
# Given the difficult nature of this immunogen to generate antibodies against, this is a significant increase. Therefore, PGE2 can be used in Balb/c mice to enhance immune responses not only to strong immunogens, but also to difficult/nominal immunogens.
# ovalbumin (OVA) = assay: Anti-OVA antibody titers in Balb/c mice immunized with OVA in the presence or absence of PGE2; format: in vivo
# Method: as §1, §2
structure (smiles),measurement,setting,value
"CCCCC[C@H](O)/C=C/[C@H]1[C@H](O)CC(=O)[C@@H]1C/C=C\CCCC(=O)O [PGE2, Prostaglandin E2]",increase of anti-AgX titers,nominal immunogen (AgX),2-3 fold
same,effect on anti-OVA titers (in words),"ovalbumin (OVA); Table 1 experiment, Day 27 and Day 35",significantly enhanced anti-OVA titers
same,effect on anti-OVA titers (in words),"ovalbumin (OVA); Table 2 experiment, following only 2 immunogen injections",enhanced anti-OVA titers
